Source: ChEMBL document CHEMBL5325461, “Effect of a new squalene synthase inhibitor on an ApoE-/- mouse model of atherosclerosis” (Bioorg Med Chem, 2023)
Activity calls are given as the source filed them. The rule behind the calls is not given here.

Key:
[1] = test system: Mus musculus; assay: Antiatherosclerotic activity in atherogenic western diet fed ApoE-/- C57BL/6 mouse model assessed as decrease in total cholesterol level in plasma at 56 umol/kg, ip administered twice daily for 3.5 months; type: functional, organism-based; conditions: dose 56.0 µmol/kg
[2] = test system: Mus musculus; assay: Antiatherosclerotic activity in atherogenic western diet fed ApoE-/- C57BL/6 mouse model assessed as decrease in LDL level in plasma at 56 umol/kg, ip administered twice daily for 3.5 months; type: functional, organism-based; conditions: dose 56.0 µmol/kg
[3] = Toxicity in western diet fed ApoE-/- C57BL/6 mouse model assessed as weight change at 56 umol/kg, ip administered twice daily for 3.5 months; type: organism-based; conditions: in vivo, 2555 h, dose 56 µmol/kg
[4] = test system: Mus musculus; assay: Antiatherosclerotic activity in atherogenic western diet fed ApoE-/- C57BL/6 mouse model assessed as effect on HDL/LDL index in plasma at 56 umol/kg, ip administered twice daily for 3.5 months; type: functional, organism-based; conditions: dose 56.0 µmol/kg
[5] = test system: Mus musculus; assay: Antihypercholesterolemic activity in atherogenic western diet fed SKH2 mouse model assessed as increase in HDL level at 56 umol/kg, ip administered twice daily for 3.5 months relative to control; type: functional; conditions: dose 56 µmol/kg, 2555 h
[6] = test system: Mus musculus; assay: Antihypercholesterolemic activity in atherogenic western diet fed SKH2 mouse model assessed as decrease in LDL level at 56 umol/kg, ip administered twice daily for 3.5 months relative to control; type: functional; design: scale not given: the % may be the effect or the level left; conditions: dose 56 µmol/kg, 2555 h
[7] = test system: Mus musculus; assay: Antihypercholesterolemic activity in atherogenic western diet fed SKH2 mouse model assessed as decrease in total cholesterol level at 56 umol/kg, ip administered twice daily for 3.5 months relative to control; type: functional; design: scale not given: the % may be the effect or the level left; conditions: dose 56 µmol/kg, 2555 h
[8] = test system: Mus musculus; assay: Antiatherosclerotic activity in atherogenic western diet fed ApoE-/- C57BL/6 mouse model assessed as decrease in total cholesterol level in plasma at 56 umol/kg, ip administered twice daily for 3.5 months relative to control; type: functional; design: scale not given: the % may be the effect or the level left; conditions: dose 56 µmol/kg, 2555 h
[9] = test system: Mus musculus; assay: Antiatherosclerotic activity in atherogenic western diet fed ApoE-/- C57BL/6 mouse model assessed as decrease in LDL level in plasma at 56 umol/kg, ip administered twice daily for 3.5 months relative to control; type: functional; design: scale not given: the % may be the effect or the level left; conditions: dose 56 µmol/kg, 2555 h
[10] = Hepatotoxicity in atherogenic western diet fed ApoE-/- C57BL/6 mouse model assessed as increase in SGOT level at 56 umol/kg, ip administered twice daily for 3.5 months; type: toxicity, organism-based; conditions: in vivo, 2555 h, dose 56 µmol/kg
[11] = Hepatotoxicity in atherogenic western diet fed ApoE-/- C57BL/6 mouse model assessed as increase in SGPT level at 56 umol/kg, ip administered twice daily for 3.5 months; type: toxicity, organism-based; conditions: in vivo, 2555 h, dose 56 µmol/kg
[12] = Hepatotoxicity in atherogenic western diet fed ApoE-/- C57BL/6 mouse model assessed as effect on ALP level at 56 umol/kg, ip administered twice daily for 3.5 months; type: toxicity, organism-based; conditions: in vivo, 2555 h, dose 56 µmol/kg
[13] = Hepatotoxicity in atherogenic western diet fed ApoE-/- C57BL/6 mouse model assessed as effect on GGT level at 56 umol/kg, ip administered twice daily for 3.5 months; type: toxicity, organism-based; conditions: in vivo, 2555 h, dose 56 µmol/kg
[14] = test system: Mus musculus; assay: Antioxidant activity in atherogenic western diet fed ApoE-/- C57BL/6 mouse model assessed as decrease in MDA level at 56 umol/kg, ip administered twice daily for 3.5 months relative to control; type: functional; design: scale not given: the % may be the effect or the level left; conditions: dose 56 µmol/kg, 2555 h
[15] = test system: Mus musculus; assay: Antihyperglycemic activity in atherogenic western diet fed ApoE-/- C57BL/6 mouse model assessed as decrease in glucose level at 56 umol/kg, ip administered twice daily for 3.5 months by glucometer analysis relative to control; type: functional; design: scale not given: the % may be the effect or the level left; conditions: dose 56 µmol/kg, 2555 h
[16] = Hepatotoxicity in atherogenic western diet fed ApoE-/- C57BL/6 mouse model assessed as edema at 56 umol/kg, ip administered twice daily for 3.5 months; type: toxicity, organism-based; conditions: in vivo, 2555 h, dose 56 µmol/kg
[17] = Hepatotoxicity in atherogenic western diet fed ApoE-/- C57BL/6 mouse model assessed as degeneration at 56 umol/kg, ip administered twice daily for 3.5 months; type: toxicity, organism-based; conditions: in vivo, 2555 h, dose 56 µmol/kg
[18] = test system: Mus musculus; assay: Antiatherosclerotic activity in atherogenic western diet fed ApoE-/- C57BL/6 mouse model assessed as reduction in atherosclerosis severity in ascending aorta at 56 umol/kg, ip administered twice daily for 3.5 months by H&E staining based analysis; type: functional, organism-based; conditions: dose 56.0 µmol/kg
[19] = test system: Mus musculus; assay: Antiatherosclerotic activity in atherogenic western diet fed ApoE-/- C57BL/6 mouse model assessed as reduction in lesion area in ascending aorta at 56 umol/kg, ip administered twice daily for 3.5 months by H&E staining based analysis; type: functional, organism-based; conditions: dose 56.0 µmol/kg
[20] = test system: Mus musculus; assay: Antiatherosclerotic activity in atherogenic western diet fed ApoE-/- C57BL/6 mouse model assessed as reduction in fat deposition in ascending aorta at 56 umol/kg, ip administered twice daily for 3.5 months by H&E staining based analysis; type: functional, organism-based; conditions: dose 56.0 µmol/kg
[21] = test system: Mus musculus; assay: Antiatherosclerotic activity in atherogenic western diet fed ApoE-/- C57BL/6 mouse model assessed as reduction in perimeter of ascending aorta covered by atheromatic spots/lesions at 56 umol/kg, ip administered twice daily for 3.5 months relative to control; type: functional; design: scale not given: the % may be the effect or the level left; conditions: dose 56 µmol/kg, 2555 h
[22] = test system: Mus musculus; assay: Antiatherosclerotic activity in atherogenic western diet fed ApoE-/- C57BL/6 mouse model assessed as reduction in area of ascending aorta covered by atheromatic spots/lesions at 56 umol/kg, ip administered twice daily for 3.5 months relative to control; type: functional; design: scale not given: the % may be the effect or the level left; conditions: dose 56 µmol/kg, 2555 h
[23] = test system: Mus musculus; assay: Antiatherosclerotic activity in atherogenic western diet fed ApoE-/- C57BL/6 mouse model assessed as reduction in atheromatic spots in aortic arch at 56 umol/kg, ip administered twice daily for 3.5 months by H&E staining based analysis; type: functional, organism-based; conditions: dose 56.0 µmol/kg
[24] = test system: Mus musculus; assay: Antiatherosclerotic activity in atherogenic western diet fed ApoE-/- C57BL/6 mouse model assessed as reduction in atheromatic lesions in aortic arch at 56 umol/kg, ip administered twice daily for 3.5 months by H&E staining based analysis; type: functional, organism-based; conditions: dose 56.0 µmol/kg
[25] = test system: Mus musculus; assay: Antiatherosclerotic activity in atherogenic western diet fed ApoE-/- C57BL/6 mouse model assessed as reduction in atheromatic spots in aortic sinus at 56 umol/kg, ip administered twice daily for 3.5 months by H&E staining based analysis; type: functional, organism-based; conditions: dose 56.0 µmol/kg
[26] = test system: Mus musculus; assay: Antiatherosclerotic activity in atherogenic western diet fed ApoE-/- C57BL/6 mouse model assessed as reduction in atheromatic lesions in aortic sinus at 56 umol/kg, ip administered twice daily for 3.5 months by H&E staining based analysis; type: functional, organism-based; conditions: dose 56.0 µmol/kg

SMILES: Br.CN1CCOC(O)(c2ccc3c(c2)Sc2ccccc2N3)C1 (stereo unspecified)
- Activity [1]: Active
- Activity [2]: Active
- Activity [3]: Non-Toxic
- Activity [4]: Active
- Activity [5]: >100%
- Activity [6]: 76%
- Activity [7]: 53%
- Activity [8]: 20%
- Activity [9]: 20%
- Activity [10]: Non-Toxic
- Activity [11]: Non-Toxic
- Activity [12]: Non-Toxic
- Activity [13]: Non-Toxic
- Activity [14]: 41%
- Activity [15]: 19%
- Activity [16]: Non-Toxic
- Activity [17]: Non-Toxic
- Activity [18]: Active
- Activity [19]: Active
- Activity [20]: Active
- Activity [21]: 70%
- Activity [22]: 55%
- Activity [23]: Active
- Activity [24]: Active
- Activity [25]: Active
- Activity [26]: Active
